The values below come from patent US6204293A, “Inhibitors of protein isoprenyl transferases” (University of Pittsburgh, priority 1998, dated 2001).

Structures are written as SMILES. Where a name gives a salt, the structure may show the parent alone.

In one assay the target is T1, Rat brain protein farnesyltransferase (Rattus norvegicus, UniProt Q02293+Q04631).
T1 construct: Rat brain protein farnesyltransferase activity is measured; from tissue; host or cells: rat brain
T1 sequence (Q02293 whole entry, one chain of several): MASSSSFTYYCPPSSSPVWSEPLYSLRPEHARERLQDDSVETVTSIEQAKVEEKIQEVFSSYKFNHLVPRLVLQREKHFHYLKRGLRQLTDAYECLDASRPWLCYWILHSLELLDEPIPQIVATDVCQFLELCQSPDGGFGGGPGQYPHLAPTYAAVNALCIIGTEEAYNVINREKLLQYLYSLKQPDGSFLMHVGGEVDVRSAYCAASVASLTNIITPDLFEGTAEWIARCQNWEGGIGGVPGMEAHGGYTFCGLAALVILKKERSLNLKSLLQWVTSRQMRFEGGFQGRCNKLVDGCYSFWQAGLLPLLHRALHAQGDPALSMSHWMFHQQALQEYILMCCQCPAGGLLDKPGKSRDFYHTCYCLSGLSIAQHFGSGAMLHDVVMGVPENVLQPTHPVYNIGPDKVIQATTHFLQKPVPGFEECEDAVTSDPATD
Put plainly: % inhibition of farnesylation, scintillation proximity assay with biotin-K Ras B fragment. It is filed as biochemical. Particulars: Table 1; 1 × 10^-5 M. The method in brief:
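Rat brain enzyme, purified through three steps, in a scintillation proximity assay kit with biotin-K Ras B fragment substrate at 0.1 mM final. Value is % inhibition of farnesylation.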
A general note: Scintillation proximity formats need no separation of bound from free tracer.
The term % inhibition denotes the relative decrease from the control value, in per cent. A lower % inhibition goes with a response near the control. As to `CSCC[C@H](NC(=O)c1ccc(CNc2cc(C)on2)cc1-c1ccccc1)C(=O)O` [Example 372], the “% inhibition at 1 × 10^-5 M” value is listed as 69%.
Still for that read-out and setting: the figure for `CSCC[C@H](NC(=O)c1ccc(CNc2cccc(CC(=O)O)c2)cc1-c1ccccc1)C(=O)O` [Example 684] is 48%.
Consider `CSCC[C@H](NC(=O)c1ccc(CNCCc2cccs2)cc1-c1ccccc1)C(=O)O` [Example 369], for which the “% inhibition at 1 × 10^-5 M” value came out at 87%.

The same assay, now with this note: Table 2; 1 × 10^-6 M.
Turning to `CSCC[C@H](NC(=O)c1ccc(CNc2ccc(N3CCCCC3)cc2)cc1-c1ccccc1C)C(=O)O` [Example 862], the “% inhibition at 1 × 10^-6 M” value came out at 95%.
On to `CSCC[C@H](NC(=O)c1ccc(C=Cc2ccccc2Oc2ccccc2)cc1-c1ccccc1C)C(=O)[O-].[Li+]` [Example 453], for which the “% inhibition at 1 × 10^-6 M” value stood at 90%.
In the case of `CSCC[C@H](NC(=O)c1ccc(NC(=O)[C@@H]2CSCN2)cc1-c1ccccc1)C(=O)O` [Example 165], the “% inhibition at 1 × 10^-6 M” value turned out to be 74%.
For `CSCC[C@H](NC(=O)c1ccc(CN2CCN(c3ccccc3)CC2)cc1-c1ccccc1C)C(=O)O` [Example 867], the “% inhibition at 1 × 10^-6 M” value came out at 71%.
With `CSCC[C@H](NC(=O)c1ccc(-c2ccc(-c3ccccc3)cc2)cc1-c1ccccc1C)C(=O)[O-].[Li+]` [Example 788], the “% inhibition at 1 × 10^-6 M” value worked out at 44%.
Consider `CSCC[C@H](NC(=O)c1ccc(CN(Cc2ccccc2)c2ccccc2)cc1-c1ccccc1C)C(=O)O` [Example 406], for which the “% inhibition at 1 × 10^-6 M” value is reported as 95%.
Turning to `CSCC[C@H](NC(=O)c1ccc(CNc2ccc(CCO)cc2)cc1-c1ccccc1)C(=O)O` [Example 694], the “% inhibition at 1 × 10^-6 M” value is given as 45%.
With `CSCC[C@H](NC(=O)c1ccc(CN(Cc2ccccc2)c2ccccc2C(C)=O)cc1-c1ccccc1C)C(=O)O` [Example 844], the “% inhibition at 1 × 10^-6 M” value is 92%.
With `CSCC[C@H](NC(=O)c1ccc(C=CCc2ccccc2)cc1-c1ccccc1C)C(=O)O` [Example 469], the “% inhibition at 1 × 10^-6 M” value is listed as 92%.
Regarding `CSCC[C@H](NC(=O)c1ccc(CNCC(O)CO)cc1-c1ccccc1)C(=O)O` (stereo partly shown) [Example 632], the “% inhibition at 1 × 10^-6 M” value is 43%.
On to `CSCC[C@H](NC(=O)c1ccc(CNc2ccc(C(O)(C(F)(F)F)C(F)(F)F)cc2)cc1-c1ccccc1)C(=O)O` [Example 693], for which the “% inhibition at 1 × 10^-6 M” value was 53%.
Take `CSCC[C@H](NC(=O)c1ccc(NC(=O)C2CCC(=O)N2)cc1-c1ccccc1)C(=O)O` (stereo partly shown) [Example 202]: the “% inhibition at 1 × 10^-6 M” value is recorded as 31%.

The same assay, now with this note: Table 3; 1 × 10^-7 M.
In the case of `CSCC[C@H](NC(=O)c1ccc(CCc2ccc(Oc3cccc(Cl)c3)cc2)cc1-c1ccccc1C)C(=O)O` [Example 859], the “% inhibition at 1 × 10^-7 M” value amounted to 86%.
In the case of `CSCC[C@H](NC(=O)c1ccc(CCc2ccccc2Oc2ccccc2)cc1-c1ccccc1C)C(=O)[O-].[Li+]` [Example 455], the “% inhibition at 1 × 10^-7 M” value came to 83%.
`CSCC[C@H](NC(=O)c1ccc(CN(Cc2ccccc2)c2ccccc2[N+](=O)[O-])cc1-c1ccccc1C)C(=O)[O-].[Li+]` [Example 849]: the “% inhibition at 1 × 10^-7 M” value is on record as 66%.
Still for that read-out and setting: the figure for `CSCC[C@H](NC(=O)c1ccc(CN(c2ccccc2)S(=O)(=O)c2ccccc2)cc1-c1ccccc1C)C(=O)O` [Example 769] is 90%; for `CSCC[C@H](NC(=O)c1ccc(CN[C@@H](CO)C2CCCCC2)cc1-c1ccccc1C)C(=O)O` [Example 604] it is 86%.
As for `CSCC[C@H](NC(=O)c1ccc(NC(=O)CN)cc1-c1ccccc1)C(=O)O` [Example 748], the “% inhibition at 1 × 10^-7 M” value came out at 56%.
Still for that read-out and setting: for `CSCC[C@H](NC(=O)c1ccc(CN[C@H](CCCC(C)C)CC2CCCCC2)cc1-c1ccccc1C)C(=O)O` [Example 527] the value was 97%.
In the case of `CCSC[C@H](CC1CCCCC1)N(Cc1ccc(C(=O)N[C@@H](CCSC)C(=O)O)c(-c2ccccc2C)c1)C(=O)c1ccccc1` [Example 949], the “% inhibition at 1 × 10^-7 M” value is given as 57%.

Staying with this assay, now noted: Table 4; 1 × 10^-8 M.
Regarding `CSCC[C@H](NC(=O)c1ccc(CN(Cc2ccccc2)c2ccc(SC)cc2)cc1-c1ccccc1C)C(=O)[O-].[Li+]` [Example 852], the “% inhibition at 1 × 10^-8 M” value is 79%.
For the compound `CSCC[C@H](NC(=O)c1ccc(CON=C(Cc2ccccc2)Cc2ccccc2)cc1-c1ccccc1C)C(=O)O` [Example 888], the “% inhibition at 1 × 10^-8 M” value is given as 86%.
Take `CSCC[C@H](NC(=O)c1ccc(CN2CCC[C@H]2COCC2CCCCC2)cc1-c1ccccc1C)C(=O)O` [Example 992]: the “% inhibition at 1 × 10^-8 M” value stood at 93%.

The assay is the same for the next values; noted with them: read-out: % inhibition at 0.01 μM (**); Table 6; ** footnote 0.01 μM (title: 0.01 mM).
The term inhibition denotes the percentage by which the read-out fell short of the control. For the compound `CSCC[C@H](NC(=O)c1ccc(CO[C@@H](CC2CCCCC2)C(=O)N2CC[S+]([O-])CC2)cc1-c1ccccc1C)C(=O)O` [Example 1055, N-[4-(3-cyclohexyl-N-thiomorpholin-S-oxide-4-ylpropion-2-yloxymethyl)-2-(2-methylphenyl)benzoyl]methionine, lithium salt], the inhibition at 0.01 µM stood at 85%.
In the case of `CSCC[C@H](NC(=O)c1ccc(COCC2CCCN2C(=O)OCC2CCCCC2)cc1-c1ccccc1C)C(=O)O` (stereo partly shown) [Example 1129, N-[4-(N-cyclohexylmethoxycarbonylpyrrolin-2-ylmethoxymethyl)-2-(2-methylphenyl)benzoyl]methionine Sodium salt], the inhibition at 0.01 µM came out at 92%.

The same assay, now with this note: read-out: % inhibition at 0.1 μM (*); Table 6; * footnote 0.1 μM (title: 0.1 mM).
Take `CSCC[C@H](NC(=O)c1ccc(CCC(=O)OCC2CCCCC2)cc1-c1ccccc1C)C(=O)O` [Example 1153, N-[4-(cyclohexylmethoxycarbonylethyl)-2-(2-methylphenyl)benzoyl]methionine]: the inhibition at 0.1 µM was determined as 89%.
As to `CCCCC(OCc1ccc(C(=O)N[C@@H](CCSC)C(=O)O)c(-c2ccccc2C)c1)c1scnc1C` (stereo partly shown) [Example 1095, N-[4-(1-(4-methylthiazol-5-yl)pentyloxy)methyl)-2-(2-methylphenyl)benzoyl]methionine lithium salt], the inhibition at 0.1 µM was 76%.
In the case of `CSCC[C@H](NC(=O)c1ccc(COC(CCC2CCCCC2)c2ncnn2C)cc1-c1ccccc1C)C(=O)O` (stereo partly shown) [Example 1224, N-[4-(1-(1-Methyl-1,2,4-triaz-5-yl)-3-cyclohexylpropan-1-yloxymethyl)-2-(2-methylphenyl)benzoyl]methionine lithium salt], the inhibition at 0.1 µM stood at 88%.

Still in this assay, the particulars now being: read-out: % inhibition at 1 × 10^-6 M.
For `CSCC[C@H](NC(=O)c1ccc(COC2(Cc3ccccc3)CCN(C(=O)OC(C)(C)C)CC2)cc1-c1ccccc1C)C(=O)O` [Example 809, N-[4-(1-t-butoxycarbonyl-4-benzylpiperidin-4-yloxymethyl)-2-(2-methylphenyl)benzoyl]methionine lithium salt], the inhibition at 1 µM amounted to 78%.

Staying with this assay, now noted: read-out: % inhibition at 1 × 10^-6 M; Table 2; 1 × 10^-6 M.
`CSCC[C@H](NC(=O)c1cc(Cc2ccccc2)c(COCc2ccco2)cc1-c1ccccc1C)C(=O)O` [Example 924]: the inhibition at 1 µM stood at 77%.

The assay is the same for the next values; noted with them: read-out: % inhibition at 1 × 10^-7 M.
As for `CSCC[C@H](NC(=O)c1ccc(COCc2cncs2)cc1-c1ccccc1C)C(=O)O` [Example 539, N-[4-(thiazol-5-ylmethoxymethyl)-2-(2-methylphenyl)benzoyl]methionine lithium salt], the inhibition at 0.1 µM worked out at 89%.
`CSCC[C@H](NC(=O)c1ccc(COCc2cccc3ccccc23)cc1-c1ccccc1C)C(=O)O` [Example 584, N-[4-(naphth-1-ylmethoxymethyl)-2-(2-methylphenyl)benzoyl]methionine lithium salt]: the inhibition at 0.1 µM came out at 96%.
In the case of `CSCC[C@H](NC(=O)c1ccc(COCc2cnc(-c3cccc(Cl)c3)o2)cc1-c1ccccc1C)C(=O)O` [Example 893, N-[4-(2-(3-chlorophenyl)oxazol-5-ylmethoxymethyl)-2-(2-methylphenyl)benzoyl]methionine lithium salt], the inhibition at 0.1 µM stood at 87%.
Turning to `CSCC[C@H](NC(=O)c1ccc(COCCc2cccc3ccccc23)cc1-c1ccccc1C)C(=O)O` [Example 592, N-[4-(2-naphth-1-ylethoxymethyl)-2-(2-methylphenyl)benzoyl]methionine lithium salt], the inhibition at 0.1 µM is 93%.
On to `CSCC[C@H](NC(=O)c1ccc(COCc2ccc(-c3ccccc3C(F)(F)F)o2)cc1-c1ccccc1C)C(=O)O` [Example 438, N-[4-(5-(2-trifluoromethylphenyl)furan-2-ylmethoxymethyl)-2-(2-methylphenyl)benzoyl]methionine lithium salt], for which the inhibition at 0.1 µM stood at 90%.

Still in this assay, the particulars now being: read-out: % inhibition at 1 × 10^-7 M; Table 3; 1 × 10^-7 M.
With `CSCC[C@H](NC(=O)c1ccc(CSc2ccc(C)cc2C)cc1-c1ccccc1C)C(=O)O` [Example 741], the inhibition at 0.1 µM is 89%.
With `CSCC[C@H](NC(=O)c1ccc(COCc2cccc(N(C)C)c2)cc1-c1ccccc1C)C(=O)O` [Example 941, N-[4-(3-N,N-dimethylaminobenzyloxymethyl)-2-(2-methylphenyl)benzoyl]methionine lithium salt], the inhibition at 0.1 µM worked out at 90%.

The assay is the same for the next values; noted with them: read-out: % inhibition at 1 × 10^-8 M.
Turning to `CSCC[C@H](NC(=O)c1ccc(COCc2cnc(-c3ccccc3Cl)s2)cc1-c1ccccc1C)C(=O)O` [Example 897, N-[4-(2-(2-chlorophenyl)thiazol-5-ylmethoxymethyl)-2-(2-methylphenyl)benzoyl]methionine lithium salt], the inhibition at 0.01 µM was 76%.
Same read-out and setting: the figure for `COc1cccc(COCc2ccc(C(=O)N[C@@H](CCSC)C(=O)O)c(-c3ccccc3C)c2)c1` [Example 932, N-[4-(3-methoxybenzyloxymethyl)-2-(2-methylphenyl)benzoyl]methionine lithium salt] is 60%; for `CSCC[C@H](NC(=O)c1ccc(COCc2ccccc2C(C)C)cc1-c1ccccc1C)C(=O)O` [Example 938, N-[4-(2-isopropylbenzyloxymethyl)-2-(2-methylphenyl)benzoyl]methionine lithium salt] it is 61%.
